Results published in patent US20040266814A1, “Imidazopyridine compounds having 5-HT4 receptor agonistic activity and 5-HT3 receptor antagonistic activity” (Pfizer Inc, priority 2003, published 2004).
Where a name gives a salt, the structure may show the parent alone.

Legend:
rat 5-HT3 receptors = biological target: T1, rat 5-HT3 receptors (Rattus norvegicus, UniProt P35563); test: Rat 5-HT3 receptor binding ([3H]-BRL 43694, rat cortical membranes); conditions: read-out: r5HT3 Binding Ki
T1 construct: Cerebral cortical tissues were removed from male Sprague-Dawley (SD) rats; from tissue; host or cells: cerebral cortex of male Sprague-Dawley rats (membranes)
T1 sequence (P35563 24-483): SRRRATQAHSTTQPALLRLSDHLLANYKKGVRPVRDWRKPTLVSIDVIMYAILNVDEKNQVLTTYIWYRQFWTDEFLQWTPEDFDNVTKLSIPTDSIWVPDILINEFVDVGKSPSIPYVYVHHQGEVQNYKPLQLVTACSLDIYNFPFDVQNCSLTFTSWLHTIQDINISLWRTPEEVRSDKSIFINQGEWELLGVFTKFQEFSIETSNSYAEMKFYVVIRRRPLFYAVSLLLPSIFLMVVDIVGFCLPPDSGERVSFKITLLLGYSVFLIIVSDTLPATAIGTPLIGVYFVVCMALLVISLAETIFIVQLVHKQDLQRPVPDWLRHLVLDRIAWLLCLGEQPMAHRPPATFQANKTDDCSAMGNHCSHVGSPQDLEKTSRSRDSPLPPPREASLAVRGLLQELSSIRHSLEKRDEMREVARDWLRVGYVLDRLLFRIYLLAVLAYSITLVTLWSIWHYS
Experimental: Cerebral cortical tissues were removed from male Sprague-Dawley (SD) rats (Japan SLC), weighed and placed in 10 volumes of 50 mM ice-cold Tris-HCl (pH 7.5). This was homogenized in a Polytron homogenizer (30 sec at full speed) and subsequently centrifuged at 48,000 g and 4° C. for 15 min. The resulting pellet was resuspended in 50 mM ice-cold Tris-HCl, homegenized and centrifuged again in the same way. The final pellet was resuspended in an appropriate volume of 50 mM Tris-HCl, dispensed into aliquots and stored at −80° C. until use.
The protein concentrations of homogenates were determined by Bradford method or BCA protein method (Pierce) with BSA as a standard.
Affinity of compounds for pig or bovine 5-HT4 and rat 5-HT3 receptors were assessed with using radiolabeled specific ligands, GR 113808 ({1-[2-(methylsulfonyl)ethyl]-4-piperidinyl} [methyl-^3H]-1H-indole-3-carboxylate) and BRL 43694 (1-Methyl-N-(9-[methyl-^3H]-9-azabicyclo [3.3.1]non-3-yl)-1H-indazole-3-caboxamide). Compounds were incubated with 25-100 pM of [^3H]-GR 113808 (Amersham) and 0.6-1 mg protein of pig or bovine striatal membranes suspended in a final volume of 0.8-1 ml of 50 mM Tris-HCl (pH 7.5). Nonspecific binding was determined with 10-50 μM 5-HT. The binding of 0.3 nM [^3H]-BRL 43694 (NEN) was measured using 400 μg protein of rat cortical membranes suspended in a final volume of 500 μl of 50 mM Tris-HCl (pH 7.5)., Nonspecific binding was determined with 10 μM 5-HT.
The plates were incubated at room temperature on a plate shaker for 30 min. The assays were stopped by rapid filtration using a Brandell cell harvester through Wallac-B filters pre-soaked in 0.2% poly(ethylenimine) at 4° C. for 60-90 min. The filters were washed three times with 1 ml of ice-cold 50 mM HEPES, and were dried in a microwave or at room temperature. They were bagged and heated with meltilex scintillant (Wallac) or soaked in BetaplateScint (Wallac). Receptor-bound radioactivity was quantified using Big-spot counter, Betaplate counter (Wallac) or LS counter (Packard).

[1] = biological target: T2, Human 5-HT4(d) transfected HEK293 cells (Homo sapiens, UniProt Q13639); test: Agonist-induced cAMP elevation in human 5-HT4(d) transfected HEK293 cells; assay type: cell-based; conditions: for Emax: HEK293, normalized to cAMP produced by 1000 nM serotonin, read-out: cAMP 5HT4 function Emax; for EC50: human 5-HT4(d) transfected HEK293 cells, read-out: cAMP 5HT4 function; for cAMP 5HT4 function, verdict in words: table remark in brackets
T2 construct: expressed in transfected cells; host or cells: HEK293
Experimental: Agonist-Induced cAMP Elevation in Human 5-HT4(d) Transfected HEK293 Cells
Human 5-HT4(d) transfected HEK293 cells were established in-house. The cells were grown at 37° C. and 5% CO2 in DMEM supplemented with 10% FCS, 20 mM HEPES (pH 7.4), 200 μg/ml hygromycin B (Gibco), 100 units/ml penicillin and 100 μg/ml streptomycin.
The cells were grown to 60-80% confluence. On the previous day before treatment with compounds dialyzed FCS (Gibco) was substituted for normal and the cells were incubated overnight.
Compounds were prepared in 96-well plates (12.5 μl/well). The cells were harvested with PBS/1 mM EDTA, centrifuged and washed with PBS. At the beginning of the assay, cell pellet was resuspended in DMEM supplemented with 20 mM HEPES, 10 μM pargyline (Sigma) and 1 mM 3-isobutyl-1-methylxanthine (Sigma) at the concentration of 1.6×10^5 cells/ml and left for 15 minutes at room temperature. The reaction was initiated by addition of the cells into plates (12.5 μl/well). After incubation for 15 minutes at room temperature, 1% Triton X-100 was added to stop the reaction (25 μl/well) and the plates were left for 30 minutes at room temperature. Homogenous time-resolved fluorescence-based cAMP (Schering) detection was made according to the manufacturer's instruction. ARVOsx multilabel counter (Wallac) was used to measure HTRF (excitation 320 nm, emission 665 nm/620 nm, delay time 50 μs, window time 400 μs).
Data was analyzed based on the ratio of fluorescence intensity of each well at 620 nm and 665 nm followed by cAMP quantification using cAMP standard curve. Enhancement of cAMP production elicited by each compound was normalized to the amount of cAMP produced by 1000 nM serotonin (Sigma).

5-HT3 = biological target: T3, 5-HT3 (Cavia porcellus, UniProt O70212); test: 5-HT3 antagonist assay in guinea-pig longitudinal muscle-myenteric plexus (LMMP)
T3 construct: 5-HT3 antagonist assay in guinea-pig longitudinal muscle-myenteric plexus (LMMP); from tissue; host or cells: guinea-pig longitudinal muscle-myenteric plexus (LMMP)
T3 sequence (O70212 20-490): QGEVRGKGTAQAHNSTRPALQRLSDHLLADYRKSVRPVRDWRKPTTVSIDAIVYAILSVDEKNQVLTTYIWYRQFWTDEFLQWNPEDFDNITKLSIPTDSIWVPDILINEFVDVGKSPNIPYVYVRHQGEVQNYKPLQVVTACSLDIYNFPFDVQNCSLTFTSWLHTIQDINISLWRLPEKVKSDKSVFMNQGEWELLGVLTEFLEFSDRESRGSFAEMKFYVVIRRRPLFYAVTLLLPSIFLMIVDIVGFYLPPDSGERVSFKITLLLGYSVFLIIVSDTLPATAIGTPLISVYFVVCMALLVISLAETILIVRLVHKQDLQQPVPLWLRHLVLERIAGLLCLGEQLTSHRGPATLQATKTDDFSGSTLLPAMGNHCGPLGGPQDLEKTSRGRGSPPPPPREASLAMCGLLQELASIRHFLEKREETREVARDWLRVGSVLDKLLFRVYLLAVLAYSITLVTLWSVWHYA
Experimental: 5-HT3 Functional Assay Method
5-HT3 antagonist assay in guinea-pig longitudinal muscle-myenteric plexus (LMMP): The LMMP tissues were prepared according to the method of A. Butler et al. (Br. J. Pharmacology, 101: 591-598, 1990) and their 5-HT4 receptors were desensitized by performing in 10 μM of 5-methoxytryptamine-containing Krebs solution. Non-cumulative concentration-effect curves (CECs) to 5-HT were constructed across the range […] in half-log unit increments. After 60-minute-equilibration with antagonists, 2nd CECs to 5-HT were constructed until 1 mM.

Human 5-HT4(d) = biological target: T4, Human 5-HT4(d) (Homo sapiens, UniProt Q13639); test: Human 5-HT4 binding ([3H]-GR113808, SPA); conditions: human 5-HT4(d) HEK293 membranes, read-out: h5HT4 Ki
T4 construct: expressed in transfected cells; host or cells: HEK293
Experimental: Human S-HT4(d) transfected HEK293 cells were prepared and grown in-house. The collected cells were suspended in 50 mM HEPES (pH 7.4 at 4° C.) supplemented with protease inhibitor cocktail (Boehringer, 1:1000 dilution) and homogenized using a hand held Polytron PT 1200 disruptor set at full power for 30 sec on ice. The homogenates were centrifuged at 40,000×g at 4° C. for 30 min. The pellets were then resuspended in 50 mM HEPES (pH 7.4 at 4° C.) and centrifuged once more in the same manner. The final pellets were resuspended in an appropriate volume of 50 mM HEPES (pH 7.4 at 25° C.), homogenized, aliquoted and stored at −80° C. until use. An aliquot of membrane fractions was used for protein concentration determination using BCA protein assay kit (PIERCE) and ARVOsx plate reader (Wallac).
For the binding experiments, 25 μl of test compounds were incubated with 25 μl of [^3H]-GR113808 (Amersham, final 0.2 nM) and 150 μl of membrane homogenate and WGA-SPA beads (Amersham) suspension solutions (10 μg protein and 1 mg SPA beads/well) for 60 minutes at room temperature. Nonspecific binding was determined by 1 μM GR113808 (Tocris) at the final concentration. Incubation was terminated by centrifugation at 1000 rpm. Receptor-bound radioactivity was quantified by counting with MicroBeta plate counter (Wallac).

T2 sequence (Q13639 1-360 isoform Q13639-3): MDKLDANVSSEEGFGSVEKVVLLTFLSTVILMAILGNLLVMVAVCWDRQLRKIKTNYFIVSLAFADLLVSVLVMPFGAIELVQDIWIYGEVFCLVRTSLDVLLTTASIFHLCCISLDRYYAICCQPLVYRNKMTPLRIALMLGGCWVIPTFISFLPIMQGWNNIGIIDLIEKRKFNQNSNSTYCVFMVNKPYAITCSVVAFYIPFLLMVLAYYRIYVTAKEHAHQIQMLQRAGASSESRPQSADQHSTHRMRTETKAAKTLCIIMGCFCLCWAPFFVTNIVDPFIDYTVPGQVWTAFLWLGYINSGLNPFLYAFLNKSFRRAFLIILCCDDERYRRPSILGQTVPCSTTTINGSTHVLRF
T4 sequence (Q13639 1-360 isoform Q13639-3): as above

Structure (SMILES) | Ki (rat 5-HT3 receptors) | Emax [1] | EC50 [1] | LMMP 5HT3 function pA (5-HT3; antagonism of 5-HT) | Kb (5-HT3; read-out: pA2 (5HT3 antagonistic functional activity) (converted)) | Ki (Human 5-HT4(d)) | melting point | 5HT4 receptor agonistic activity [1] | cAMP 5HT4 function, verdict in words [1] | cAMP 5HT4 function, % @1000 ([1]; @1000 [nM], normalized to 1000 nM serotonin)
CCc1cn2c(N)c(Cl)cc(C(=O)NCC3CCNCC3)c2n1 [Example 2, 5-AMINO-6-CHLORO-2-ETHYL-N-(PIPERIDIN-4-YLMETHYL)IMIDAZO[1,2-a]PYRIDINE-8-CARBOXAMIDE] | 48 nM | 58% | 40 nM | 6.6 | 251 nM | 109 nM | 153 °C | – | – | –
Cc1cn2c(N)c(Cl)cc(C(=O)NCC3CCNCC3)c2n1 [Example 1, 5-AMINO-6-CHLORO-2-METHYL-N-(PIPERIDIN-4-YLMETHYL)-IMIDAZO[1,2-a]PYRIDINE-8-CARBOXAMIDE] | 26 nM | 88% | 13.6 nM | – | – | 58 nM | – | – | – | –
Cc1cn2c(N)c(Cl)cc(C(=O)NCC3CCNCC3)c2n1 (as salt: hydrochloride) [Example 1, 5-AMINO-6-CHLORO-2-METHYL-N-(PIPERIDIN-4-YLMETHYL)-IMIDAZO[1,2-a]PYRIDINE-8-CARBOXAMIDE] | – | – | – | – | – | – | 237 °C | – | – | –
O=C(NC1CN2CCC1CC2)c1cc(Cl)cn2ccnc12 (centres unmarked) [C] | 6 nM | 11% | 2660 nM | – | – | – | – | inactive | inactive | –
CCCCN1CCC(CNC(=O)c2cc(Cl)cn3ccnc23)CC1 [compound B] | 4300 nM | – | – | – | – | 1.1 nM | – | inactive | inactive | 0%
CN(C)C1(CCNC(=O)c2cc(Cl)cn3ccnc23)CCCCC1 | 785 nM | – | – | – | – | – | – | – | – | –
